Our source for the IC50, Activity and Kd values is ChEMBL document CHEMBL1759889, “Susceptibility and mode of binding of the Mycobacterium tuberculosis cysteinyl transferase mycothiol ligase to tRNA synthetase inhibitors” (Bioorg Med Chem Lett, 2011).

Each structure is given as a SMILES string. pIC50, pKd: −log10 of the molar value. Calls of active or inactive are those of the source. The calls are words filed in the database; no cut-off is given here.

In assay [1] the target is T1, L-cysteine:1D-myo-inositol 2-amino-2-deoxy-alpha-D-glucopyranoside ligase (Mycobacterium tuberculosis, UniProt P9WJM9).
T1 sequence (P9WJM9 whole entry): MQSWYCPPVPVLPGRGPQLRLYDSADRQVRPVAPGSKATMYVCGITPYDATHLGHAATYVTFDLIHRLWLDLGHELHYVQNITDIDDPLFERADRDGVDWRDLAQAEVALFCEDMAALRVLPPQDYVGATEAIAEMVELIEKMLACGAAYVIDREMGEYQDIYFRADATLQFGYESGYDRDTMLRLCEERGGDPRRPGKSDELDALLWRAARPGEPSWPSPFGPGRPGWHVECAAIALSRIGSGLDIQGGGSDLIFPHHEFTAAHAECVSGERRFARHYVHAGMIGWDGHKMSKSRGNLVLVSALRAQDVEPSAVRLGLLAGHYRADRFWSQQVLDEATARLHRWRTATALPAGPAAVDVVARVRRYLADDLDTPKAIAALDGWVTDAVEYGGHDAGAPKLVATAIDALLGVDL
Nature of the assay: Inhibition of Mycobacterium tuberculosis recombinant MBP-tagged MshC assessed as formation of fluorescently labeled Cys-GlcN-Ins by HPLC.

Assay [2] concerns the target T2, L-cysteine:1D-myo-inositol 2-amino-2-deoxy-alpha-D-glucopyranoside ligase (Mycobacterium tuberculosis) (UniProt P9WJM9).
T2 sequence (whole entry): T1 sequence (P9WJM9 whole entry)
Nature of the assay: Binding affinity to Mycobacterium tuberculosis recombinant MBP-tagged MshC by STD-NMR analysis.

Assay [3] addresses T1, L-cysteine:1D-myo-inositol 2-amino-2-deoxy-alpha-D-glucopyranoside ligase. Put plainly: Binding affinity to Mycobacterium tuberculosis recombinant MBP-tagged MshC by isothermal titration calorimetry assay.
In assay [4] the target is T2, L-cysteine:1D-myo-inositol 2-amino-2-deoxy-alpha-D-glucopyranoside ligase (Mycobacterium tuberculosis). Put plainly: Binding affinity to Mycobacterium tuberculosis recombinant MBP-tagged MshC by transferred NOESY analysis.

Turning to `C/C(=C\C(=O)OCCCCCCCCC(=O)O)C[C@@H]1OC[C@H](C[C@@H]2O[C@H]2[C@@H](C)[C@H](C)O)[C@@H](O)[C@H]1O` [MUPIROCIN], the pIC50 in assay [1] was under 2.30. Regarding `Nc1ncnc2c1ncn2[C@@H]1O[C@H](COS(=O)(=O)NC(=O)[C@@H](N)CS)[C@@H](O)[C@H]1O`, the outcome in assay [2] was inactive. Moreover, in assay [1], the negative logarithm of the IC50 (pIC50) is 7.30. Also, the pKd in assay [3] was 7.31. As to `Nc1ncnc2c1ncn2[C@@H]1O[C@H](COS(=O)(=O)NC(=O)[C@@H](N)CC(=O)O)[C@@H](O)[C@H]1O`, the outcome in assay [2] and in assay [4] was inactive. For the same molecule, the pIC50 in assay [1] is 2.92. For the molecule `C[C@@H]1Cc2c(Cl)cc(C(=O)N[C@@H](Cc3ccccc3)C(=O)O)c(O)c2C(=O)O1` [3R14S-OCHRATOXIN A], the pIC50 in assay [1] was 2.60.

For the molecule `Nc1ncnc2c1ncn2[C@@H]1O[C@H](COS(=O)(=O)NC(=O)[C@@H](N)CO)[C@@H](O)[C@H]1O`, the pIC50 in assay [1] was 2.30. Still for that read-out and setting: to `C[C@@H]1C[C@H](C)C[C@H](C)[C@@H](O)CC(=O)O[C@H]([C@@H]2CCC[C@H]2C(=O)O)C/C=C/C=C(/C#N)[C@H](O)[C@@H](C)C1` [BORRELIDIN] belongs under 2.70; to `N[C@H]1CCC[C@H]1C(=O)O`, under 2.40.

As usually defined, the pIC50 is the negative decadic logarithm of the IC50, by convention in mol/L. Broadly, the pKd is the negative decadic logarithm of the Kd, by convention in mol/L.
